Values after ≈ are worked out from the molar mass of the structure shown. Read-outs that look alike come from different tables or passages of the source.

Type in all cases: cell-based
What all share (details): read-out: MIC (minimum concentration that completely inhibits spore germination)

Test [1] relates to spores of ATCC BBA1870 strain. In words: Inhibition of germination of C. difficile spores (MIC), strain ATCC BBA1870. On the procedure: (§1) According to a method disclosed in “The Journal of Infectious Diseases. 2013; 207: 1498-504”, spores of ATCC BBA1870, ATCC 43255 and ATCC 630 strains were obtained by culture and purification, and stored at 4° C.
(§2) Spore preparation: the C. difficile spores stored at 4° C. were heat-activated for 30 min at 65° C., centrifuged at 9,400 g for 2 min, and washed three times to remove any self-germinating spores.
(§3) Control drug: three cholic acid derivatives, a compound CamSA, a compound 20β (prepared by the method of “Journal of Medicinal Chemistry. 2017, 60 (8): 3451-3471”), and a compound 12a (prepared by the method of “Journal of Medicinal Chemistry. 2018, 61, 6759-6778”), were used as control drugs.
(§4) Compound preparation: the compound of the present disclosure, and the positive control drugs CamSA, 20β, and 12a were dissolved in DMSO, to prepare a stock solution with a concentration of 10 mM (prepared for immediate use).
(§5) The detection was conducted in a 96-well cell culture plate at a constant temperature of 37° C.; a final volume of each well of the 96-well plate was […] and a buffer was the BHIS medium; 150 μl of spores and drugs were added to the well in advance, and 50 μl of 4 mg/ml sodium taurocholate was added; OD580 was detected every 1 min immediately using a microplate reader, for continuously 60 min. A germination agent control group and a non-germination group were set up; after the detection, a final OD value of each well was compared with an initial value, and compared with the germination agent group to calculate a germination rate and an inhibition rate. A formula for the germination rate was:
(§6) Inhibition rate=100%−germination rate.

In test [2] the test system is spores of ATCC 630 strain. The test is described as follows: Inhibition of germination of C. difficile spores (MIC), strain ATCC 630. On the procedure:
as §1, §2, §3, §4, §5, §6

Test [3] deals with spores of ATCC 43255 strain. In words: Inhibition of germination of C. difficile spores (MIC), strain ATCC 43255. The method, then: as §1, §2, §3, §4, §5, §6
The mark [4] stands for this setting: Clostridioides difficile, ATCCBBA1870STRAIN, 1 h, strain 1870, sodium taurocholate as germinant, BHIS medium, 37° C., OD580 for 60 min.
[5] abbreviates: Clostridioides difficile, ATCC630, 1 h, strain 630, sodium taurocholate as germinant, BHIS medium, 37° C., OD580 for 60 min.
The mark [6] stands for this setting: Clostridioides difficile, ATCC43255, 1 h, strain 43255, sodium taurocholate as germinant, BHIS medium, 37° C., OD580 for 60 min.

Consider `CCC(NC(=O)C[C@@H](C)[C@H]1CC[C@H]2[C@@H]3C(=O)C[C@@H]4CC(=O)CC[C@]4(C)[C@H]3CC[C@]12C)c1ccc(Br)s1` (stereo partly drawn) [Compound I-38], for which the MIC in test [1] (setting [4]) came to 2 µM (≈ 1.15 µg/mL); in test [2] (setting [5]) it was 1 µM (≈ 0.577 µg/mL); in test [3] (setting [6]) it was 2 µM (≈ 1.15 µg/mL).
With `CC(C)[C@@H](NC(=O)C[C@@H](C)[C@H]1CC[C@H]2[C@@H]3[C@H](OC(=O)CCCCCCC(=O)O)C[C@@H]4CC(=O)CC[C@]4(C)[C@H]3CC[C@]12C)c1ccc(Br)s1` [Compound I-190], the MIC in test [1] (setting [4]), in test [2] (setting [5]) and in test [3] (setting [6]) was 0.25 µM (≈ 0.187 µg/mL) each time.
`CC(C)C(NC(=O)C[C@@H](C)[C@H]1CC[C@H]2[C@@H]3[C@H](O)C[C@@H]4CC(=O)CC[C@]4(C)[C@H]3CC[C@]12C)c1ccc(S(=O)(=O)O)s1` (stereo partly drawn) [Compound I-101]: the MIC in test [1] (setting [4]), in test [2] (setting [5]) and in test [3] (setting [6]) was 32 µM (≈ 19 µg/mL) each time.
As for `CC(C)[C@@H](NC(=O)C[C@@H](C)[C@H]1CC[C@H]2[C@@H]3[C@H](O)C[C@@H]4C[C@H](O)CC[C@]4(C)[C@H]3CC[C@]12C)c1ccc(Br)s1` [Compound I-140], the MIC in test [1] (setting [4]), in test [2] (setting [5]) and in test [3] (setting [6]) was 1 µM (≈ 0.595 µg/mL) in each case.
On to `CC[C@@H](NC(=O)C[C@@H](C)[C@H]1CC[C@H]2[C@@H]3[C@H](O)[C@H](O)[C@@H]4CC(=O)CC[C@]4(C)[C@H]3CC[C@]12C)c1cccs1` [Compound I-122], for which the MIC in test [1] (setting [4]), in test [2] (setting [5]) and in test [3] (setting [6]) was 128 µM (≈ 66 µg/mL) throughout.
`CC(NC(=O)C[C@@H](C)[C@H]1CC[C@H]2[C@@H]3[C@H](O)[C@H](O)[C@@H]4C[C@H](O)CC[C@]4(C)[C@H]3CC[C@]12C)c1cccs1` (stereo partly drawn) [Compound I-22]: the MIC in test [1] (setting [4]), in test [2] (setting [5]) and in test [3] (setting [6]) was 8 µM (≈ 4.03 µg/mL) each time.
In the case of `CC[C@@H](NC(=O)C[C@@H](C)[C@H]1CC[C@H]2[C@@H]3C(=O)C[C@@H]4CC(=O)CC[C@]4(C)[C@H]3CC[C@]12C)c1ccc(N(C)C)s1` [Compound I-203], the MIC in test [1] (Clostridioides difficile, ATCCBBA1870STRAIN, 1 h) is 32 µM (≈ 17.3 µg/mL); in test [2] (Clostridioides difficile, ATCC630, 1 h) it was 16 µM (≈ 8.65 µg/mL); in test [3] (Clostridioides difficile, ATCC43255, 1 h) it was 32 µM (≈ 17.3 µg/mL).
For the compound `CC[C@H](NC(=O)C[C@@H](C)[C@H]1CC[C@H]2[C@@H]3C(=O)C[C@@H]4CC(=O)CC[C@]4(C)[C@H]3CC[C@]12C)c1ccc(S(=O)(=O)O)s1` [Compound I-73], the MIC in test [1] (setting [4]), in test [2] (setting [5]) and in test [3] (setting [6]) was over 256 µM each time.
Take `CC[C@@H](NC(=O)C[C@@H](C)[C@H]1CC[C@H]2[C@@H]3[C@H](O)C[C@@H]4C[C@H](O)CC[C@]4(C)[C@H]3CC[C@]12C)c1ccc(Br)s1` [Compound I-138]: the MIC in test [1] (setting [4]), in test [2] (setting [5]) and in test [3] (setting [6]) was 1 µM (≈ 0.581 µg/mL) throughout.
On to `CC(C)[C@H](NC(=O)C[C@@H](C)[C@H]1CC[C@H]2[C@@H]3[C@H](O)C[C@@H]4CC(=O)CC[C@]4(C)[C@H]3CC[C@]12C)c1cccs1` [Compound I-135], for which the MIC in test [1] (setting [4]), in test [2] (setting [5]) and in test [3] (setting [6]) was over 256 µM throughout.
Regarding `C[C@H](CCC(=O)Nc1cccc(S(=O)(=O)O)c1)[C@H]1CC[C@H]2[C@@H]3[C@H](O)C[C@@H]4C[C@H](O)CC[C@]4(C)[C@H]3C[C@H](O)[C@]12C` [CamSA, reference compound], the MIC was over 256 µM in test [1] (strain 1870, sodium taurocholate as germinant, BHIS medium, 37° C., OD580 for 60 min); over 256 µM in test [2] (strain 630, sodium taurocholate as germinant, BHIS medium, 37° C., OD580 for 60 min); over 256 µM in test [3] (strain 43255, sodium taurocholate as germinant, BHIS medium, 37° C., OD580 for 60 min).
With `CC[C@@H](NC(=O)C[C@@H](C)[C@H]1CC[C@H]2[C@@H]3[C@H](OC(C)=O)C[C@@H]4CC(=O)CC[C@]4(C)[C@H]3CC[C@]12C)c1ccc(Cl)s1` [Compound I-175], the MIC in test [1] (setting [4]) worked out at 1 µM (≈ 0.576 µg/mL); in test [2] (setting [5]) it was 0.5 µM (≈ 0.288 µg/mL); in test [3] (setting [6]), 1 µM (≈ 0.576 µg/mL).
On to `CC[C@@H](NC(=O)C[C@@H](C)[C@H]1CC[C@H]2[C@@H]3[C@H](O)CC4=CC(=O)C=C[C@]4(C)[C@H]3CC[C@]12C)c1ccc(Cl)s1` [Compound I-161-2], for which the MIC turned out to be 0.25 µM (≈ 0.133 µg/mL) in test [1] (setting [4]), 0.25 µM (≈ 0.133 µg/mL) in test [2] (setting [5]) and 0.5 µM (≈ 0.265 µg/mL) in test [3] (setting [6]).
Take `C[C@H](CC(=O)NCc1ccccc1)[C@H]1CC[C@H]2[C@@H]3[C@H](O)C[C@@H]4C[C@H](O)CC[C@]4(C)[C@H]3CC[C@]12C` [Compound I-4]: the values for the MIC in test [1] (setting [4]), in test [2] (setting [5]) and in test [3] (setting [6]) were 32 µM (≈ 15 µg/mL), 8 µM (≈ 3.74 µg/mL) and 16 µM (≈ 7.48 µg/mL), respectively.
In the case of `C[C@H](CC(=O)N[C@H](C)c1ccccc1)[C@H]1CC[C@H]2[C@@H]3C(=O)C[C@@H]4CC(=O)CC[C@]4(C)[C@H]3CC[C@]12C` [Compound I-25], the MIC was 2 µM (≈ 0.955 µg/mL) in test [1] (setting [4]), 1 µM (≈ 0.478 µg/mL) in test [2] (setting [5]) and 1 µM (≈ 0.478 µg/mL) in test [3] (setting [6]).
`CC(C)C(NC(=O)C[C@@H](C)[C@H]1CC[C@H]2[C@@H]3[C@H](OS(=O)(=O)O)C[C@@H]4CC(=O)CC[C@]4(C)[C@H]3CC[C@]12C)c1ccc(Br)s1` (stereo partly drawn) [Compound I-113]: the MIC in test [1] (setting [4]) amounted to 1 µM (≈ 0.673 µg/mL); in test [2] (setting [5]), 1 µM (≈ 0.673 µg/mL); in test [3] (setting [6]), 0.5 µM (≈ 0.336 µg/mL).
For `CC(=O)O[C@@H]1C[C@@H]2CC(=O)CC[C@]2(C)[C@H]2CC[C@]3(C)[C@@H]([C@H](C)CC(=O)N[C@@H](c4ccc(Cl)s4)C(C)C)CC[C@H]3[C@H]12` [Compound I-177], the MIC in test [1] (setting [4]) is 0.5 µM (≈ 0.295 µg/mL); in test [2] (setting [5]) it was 0.5 µM (≈ 0.295 µg/mL); in test [3] (setting [6]), 1 µM (≈ 0.59 µg/mL).
As to `CC(C)[C@H](NC(=O)C[C@@H](C)[C@H]1CC[C@H]2[C@@H]3[C@H](O)C[C@@H]4CC(=O)CC[C@]4(C)[C@H]3CC[C@]12C)c1ccc(Cl)s1` [Compound I-96], the MIC in test [1] (setting [4]), in test [2] (setting [5]) and in test [3] (setting [6]) was 4 µM (≈ 2.19 µg/mL) in each case.
As for `CC(C)[C@H](NC(=O)C[C@@H](C)[C@H]1CC[C@H]2[C@@H]3C(=O)C[C@@H]4CC(=O)CC[C@]4(C)[C@H]3CC[C@]12C)c1ccc(Br)s1` [Compound I-79], the MIC in test [1] (setting [4]) turned out to be 8 µM (≈ 4.73 µg/mL); in test [2] (setting [5]), 4 µM (≈ 2.36 µg/mL); in test [3] (setting [6]), 8 µM (≈ 4.73 µg/mL).
`C[C@H](CC(=O)NCc1cccs1)[C@H]1CC[C@H]2[C@@H]3[C@@H](O)C[C@@H]4C[C@H](O)CC[C@]4(C)[C@H]3CC[C@]12C` [Compound I-12]: the MIC in test [1] (setting [4]) was 128 µM (≈ 60.6 µg/mL); in test [2] (setting [5]), 256 µM (≈ 121 µg/mL); in test [3] (setting [6]), 256 µM (≈ 121 µg/mL).
On to `CC[C@@H](NC(=O)C[C@@H](C)[C@H]1CC[C@H]2[C@@H]3[C@@H](O)C[C@@H]4CC(=O)CC[C@]4(C)[C@H]3CC[C@]12C)c1ccc(Cl)s1` [Compound I-163], for which the MIC in test [1] (setting [4]), in test [2] (setting [5]) and in test [3] (setting [6]) was 32 µM (≈ 17.1 µg/mL) each time.
Turning to `CC(C)[C@@H](NC(=O)C[C@@H](C)[C@H]1CC[C@H]2[C@@H]3[C@H](O)C[C@@H]4C[C@H](O)CC[C@]4(C)[C@H]3CC[C@]12C)c1ccc(Cl)s1` [Compound I-139], the MIC is 2 µM (≈ 1.1 µg/mL) in test [1] (setting [4]), 1 µM (≈ 0.55 µg/mL) in test [2] (setting [5]) and 1 µM (≈ 0.55 µg/mL) in test [3] (setting [6]).
